21 compounds from US8759377B2, “Substituted dioxopiperidines and dioxopyrrolidines as MGLUR4 allosteric potentiators, compositions, and methods of treating neurological dysfunction” (Vanderbilt University, priority 2009, dated 2014) can be followed below.

Like-named read-outs stand apart in the source and are kept apart here.

One test deals with T1, human mGluR4 (Homo sapiens, UniProt Q14833).
T1 construct: expressed in transfected cells; host or cells: CHO cells
As to the kind of experiment: human mGluR4 potentiation, Ca2+-sensitive dye fluorescence assay in transfected CHO cells. The test is classed as cell-based. As to conditions: for Emax: CHO, maximum extent of potentiation, human mGluR4, read-out: hGluMax; for EC50: EC50 for potentiation, human mGluR4, with EC20 concentration of agonist, read-out: hEC50. The protocol: (§1) The disclosed compounds and compositions can be evaluated for their ability to act as a potentiator of metabotropic glutamate receptor activity, in particular mGluR4 activity, by any suitable known methodology known in the art. For example, Chinese Hamster Ovary (CHO) cells transfected with human mGluR4 or HEK cells co-transfected with rat mGluR4 and the G-protein regulated Inwardly Rectifying Potassium channel (GIRK) were plated in clear bottom assay plates for assay in a Hamamatsu FDSS Fluorometric Plate Reader. The cells were loaded with either a Ca2+-sensitive fluorescent dye or the thallium responsive dye and the plates were washed and placed into a suitable kinetic plate reader. […] Approximately two and a half minutes later, a concentration of mGluR4 orthosteric agonist (e.g. glutamate or L-AP4) eliciting approximately 20% (EC20) of the maximal agonist response was added to the cells, and the response was measured. Two minutes later, a concentration of mGluR4 agonist (e.g. glutamate or L-AP4) eliciting 80% (EC80) of the maximal agonist response was added to the cells, and the response was measured. For rat mGluR4/GIRK experiments, a baseline was established for approximately five seconds, disclosed compounds were added, and either an EC20 or EC80 concentration of agonist was added approximately two and one half minutes later.
(§2) The above described assay operated in two modes. In the first mode, a range of concentrations of the disclosed compounds are added to cells, followed by a single fixed concentration of agonist. If the compound acts as a potentiatior, an EC50 value for potentiation and a maximum extent of potentiation by the compound at this concentration of agonist is determined by non-linear curve fitting. If the compound acts as a noncompetitive antagonist, an IC50 value is determined by non-linear curve fitting. In the second mode, several fixed concentrations of the disclosed compounds are added to various wells on a plate, followed by a range in concentrations of agonist for each concentration of disclosed compound. The ECso values for the agonist at each concentration of compound are determined by non-linear curve fitting. A decrease in the EC50 value of the agonist with increasing concentrations of the sample compound (a leftward shift of the agonist concentration-response curve) is an indication of the degree of mGluR4 potentiation at a given concentration of the sample compound. A decrease in the maximal response of the agonist with increasing concentrations of the sample compounds, with or without a rightward shift in agonist potency, is an indication of the degree of noncompetitive antagonism at mGluR4. The second mode also indicates whether the sample compounds also affect the maximum response to mGluR4 to agonists.

In the next test the target is T2, rat mGluR4 (Rattus norvegicus, UniProt P31423).
T2 construct: expressed in transfected cells; host or cells: HEK cells
T2 sequence (P31423 33-912): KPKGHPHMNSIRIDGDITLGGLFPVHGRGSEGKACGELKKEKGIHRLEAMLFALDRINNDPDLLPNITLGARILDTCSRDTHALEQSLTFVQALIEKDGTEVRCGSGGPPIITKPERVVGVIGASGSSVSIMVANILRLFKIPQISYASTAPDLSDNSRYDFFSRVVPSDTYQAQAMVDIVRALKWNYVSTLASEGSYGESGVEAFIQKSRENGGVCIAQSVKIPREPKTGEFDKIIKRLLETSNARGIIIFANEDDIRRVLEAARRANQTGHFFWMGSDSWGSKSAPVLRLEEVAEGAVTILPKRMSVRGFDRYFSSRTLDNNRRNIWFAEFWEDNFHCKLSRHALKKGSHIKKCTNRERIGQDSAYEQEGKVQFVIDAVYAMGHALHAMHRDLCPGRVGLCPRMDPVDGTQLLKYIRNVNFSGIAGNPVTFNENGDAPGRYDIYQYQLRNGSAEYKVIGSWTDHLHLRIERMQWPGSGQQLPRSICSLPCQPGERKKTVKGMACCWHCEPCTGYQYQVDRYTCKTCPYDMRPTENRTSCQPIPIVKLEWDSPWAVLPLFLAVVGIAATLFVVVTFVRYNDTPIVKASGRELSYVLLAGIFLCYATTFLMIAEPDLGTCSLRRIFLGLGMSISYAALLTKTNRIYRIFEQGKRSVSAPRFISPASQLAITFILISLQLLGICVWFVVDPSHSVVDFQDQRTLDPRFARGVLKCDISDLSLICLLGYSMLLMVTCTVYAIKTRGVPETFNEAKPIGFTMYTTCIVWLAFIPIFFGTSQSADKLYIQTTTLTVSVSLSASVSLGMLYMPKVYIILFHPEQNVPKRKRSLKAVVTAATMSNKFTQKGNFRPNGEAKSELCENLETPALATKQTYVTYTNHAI
As to the kind of experiment: rat mGluR4/GIRK potentiation, thallium responsive dye assay in co-transfected HEK cells. The test is classed as cell-based. The note with it: for rGluMax: maximum extent of potentiation. Here is the method:
as §1, §2

T1 sequence (Q14833 33-912): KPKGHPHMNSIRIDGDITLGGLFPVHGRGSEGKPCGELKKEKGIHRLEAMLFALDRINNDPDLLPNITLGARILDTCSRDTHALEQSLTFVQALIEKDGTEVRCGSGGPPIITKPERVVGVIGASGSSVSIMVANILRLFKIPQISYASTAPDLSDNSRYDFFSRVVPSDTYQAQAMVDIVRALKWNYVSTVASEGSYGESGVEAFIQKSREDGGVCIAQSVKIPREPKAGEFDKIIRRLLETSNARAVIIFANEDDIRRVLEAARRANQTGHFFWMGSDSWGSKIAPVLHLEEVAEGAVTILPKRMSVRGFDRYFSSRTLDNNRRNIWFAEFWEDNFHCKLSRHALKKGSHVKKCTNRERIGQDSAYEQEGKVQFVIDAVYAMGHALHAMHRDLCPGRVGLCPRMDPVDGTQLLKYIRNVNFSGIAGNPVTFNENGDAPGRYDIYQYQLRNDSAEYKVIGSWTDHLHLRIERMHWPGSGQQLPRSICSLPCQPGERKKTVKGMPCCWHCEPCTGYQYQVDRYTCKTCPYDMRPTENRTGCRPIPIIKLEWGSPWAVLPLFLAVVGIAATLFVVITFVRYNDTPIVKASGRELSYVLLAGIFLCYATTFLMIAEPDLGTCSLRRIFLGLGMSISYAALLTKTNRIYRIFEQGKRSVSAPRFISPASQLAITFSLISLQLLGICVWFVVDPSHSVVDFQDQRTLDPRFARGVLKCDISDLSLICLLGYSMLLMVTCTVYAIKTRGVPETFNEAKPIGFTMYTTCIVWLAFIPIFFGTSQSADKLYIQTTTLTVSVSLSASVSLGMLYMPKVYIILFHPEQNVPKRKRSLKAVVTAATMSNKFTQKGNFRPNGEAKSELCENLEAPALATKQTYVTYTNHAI

For the compound `O=C(Nc1ccc(N2C(=O)CCC2=O)c(Cl)c1)c1nccs1` [Example 20, N-(3-chloro-4-(2,5-dioxopyrrolidin-1-yl)phenyl)thiazole-2-carboxamide], on human mGluR4, the Emax came to 69% and the EC50 came out at 7730 nM.
For `O=C(Nc1ccc(N2C(=O)CC3(CCCCC3)CC2=O)c(Cl)c1)c1ccccn1` [Example 14, N-(3-chloro-4-(2,4-dioxo-3-azaspiro[5.5]undecan-3-yl)phenyl)picolinamide], at human mGluR4, the Emax came out at 193% and the EC50 came to 163 nM.
For `O=C(Nc1ccc(N2C(=O)C3[C@H]4C=C[C@H](C4)[C@H]3C2=O)c(Cl)c1)c1ccccn1` (some centres unmarked) [Example 2], the Emax at human mGluR4 amounted to 211%. The rGluMax at rat mGluR4 (rat mGluR4/GIRK) is on record as 110.2.
On to `O=C(Nc1ccc(N2C(=O)CCC2=O)c(Cl)c1)c1ccccn1` [Example 16, N-(3-chloro-4-(2,5-dioxopyrrolidin-1-yl)phenyl)picolinamide], for which, on human mGluR4, the Emax was 119% and the EC50 was 5940 nM.
Regarding `O=C(Nc1ccc(N2C(=O)CCC2=O)c(Cl)c1)c1cscn1` [Example 21, N-(3-chloro-4-(2,5-dioxopyrrolidin-1-yl)phenyl)thiazole-4-carboxamide], at human mGluR4, the Emax is 62% and the EC50 was 8660 nM.
On to `O=C(Nc1ccc(N2C(=O)CC(Cc3ccccc3Cl)(c3ccccc3)C2=O)c(Cl)c1)c1ccccn1` (centres unmarked) [Example 4, N-(3-chloro-4-(3-(2-chlorobenzyl)-2,5-dioxo-3-phenylpyrrolidin-1-yl)phenyl)picolinamide], for which, on human mGluR4, the Emax worked out at 88% and the EC50 is 329 nM.
In the case of `O=C(Nc1ccc(N2C(=O)[C@@H]3[C@H](C2=O)[C@@H]2C=C[C@H]3CC2)c(Cl)c1)c1ccccn1` [Example 1], on human mGluR4, the Emax stood at 222%.
Consider `O=C(Nc1ccc(N2C(=O)CCC2=O)c(Cl)c1)c1cccc(Cl)n1` [Example 18, 6-Chloro-N-(3-chloro-4-(2,5-dioxopyrrolidin-1-yl)phenyl)picolinamide], for which, at human mGluR4, the Emax was 37% and the EC50 came to 2550 nM.
The like results for `CC1(C)CC(=O)N(c2ccc(NC(=O)c3ccccn3)cc2Cl)C1=O` [Example 5, N-(3-chloro-4-(3,3-dimethyl-2,5-dioxopyrrolidin-1-yl)phenyl)picolinamide] were, in that order, 155% and 1810 nM.
Consider `CC1(c2ccccc2)CC(=O)N(c2ccc(NC(=O)c3ccccn3)cc2Cl)C1=O` (centres unmarked) [Example 6, N-(3-chloro-4-(3-methyl-2,5-dioxo-3-phenylpyrrolidin-1-yl)phenyl)picolinamide], for which, at human mGluR4, the Emax was found to be 245%.
With `O=C(Nc1ccc(N2C(=O)C3=C(C2=O)c2ccccc2CC3)c(Cl)c1)c1ccccn1` [Example 12, N-(3-chloro-4-(1,3-dioxo-4,5-dihydro-1H-benzo[e]isoindol-2(3H)-yl)phenyl)picolinamide], on human mGluR4, the Emax stood at 276% and the EC50 amounted to 254 nM.
On to `O=C(Nc1ccc(N2C(=O)CCC2=O)c(Cl)c1)c1ccncn1` [Example 19, N-(3-chloro-4-(2,5-dioxopyrrolidin-1-yl)phenyl) pyrimidine-4-carboxamide], for which, on human mGluR4, the Emax was 46% and the EC50 is 10000 nM.
As for `O=C(Nc1ccc(N2C(=O)Cc3ccccc3C2=O)c(Cl)c1)c1ccccn1` [Example 13, N-(3-chloro-4-(1,3-dioxo-3,4-dihydroisoquinolin-2(1H)-yl)phenyl)picolinamide], at human mGluR4, the Emax was determined as 256% and the EC50 came out at 118 nM.
With `O=C(Nc1ccc(N2C(=O)CCC2=O)c(Cl)c1)c1cccc(F)n1` [Example 17, N-(3-chloro-4-(2,5-dioxopyrrolidin-1-yl)phenyl)-6-fluoropicolinamide], at human mGluR4, the Emax turned out to be 40% and the EC50 turned out to be 3130 nM.
In the case of `O=C(Nc1ccc(N2C(=O)[C@@H]3CCCC[C@H]3C2=O)c(Cl)c1)c1ccccn1` [Example 8, N-(3-chloro-4-((3aR,7aR)-1,3-dioxo-1H-isoindol-2(3H,3aH,4H,5H,6H,7H,7aH)-yl)phenyl)picolinamide], on human mGluR4, the Emax turned out to be 189%. In addition, the EC50 on rat mGluR4 (EC50 for potentiation, rat mGluR4/GIRK, with EC20 concentration of agonist, read-out: rEC50) worked out at 680 nM. Moreover, the rGluMax on rat mGluR4 (rat mGluR4/GIRK) turned out to be 123.3.
Consider `O=C(Nc1ccc(N2C(=O)[C@H]3CC[C@H](c4ccccc4)C[C@H]3C2=O)c(Cl)c1)c1ccccn1` [Example 7], for which, at human mGluR4, the Emax was 209% and the EC50 came to 1950 nM.
As to `O=C(Nc1ccc(N2C(=O)CC3(CCCCC3)C2=O)c(Cl)c1)c1ccccn1` [Example 15, N-(3-chloro-4-(1,3-dioxo-2-azaspiro[4.5]decan-2-yl)phenyl)picolinamide], the Emax at human mGluR4 is 139%. Also, at rat mGluR4 (rat mGluR4/GIRK), the rGluMax stood at 86.1.
`CC1CCC2C(=O)N(c3ccc(NC(=O)c4ccccn4)cc3Cl)C(=O)C2C1` (centres unmarked) [Example 10, N-(3-chloro-4-(5-methyl-1,3-dioxo-1H-isoindol-2(3H,3 aH,4H,5H,6H,7H,7aH)-yl)phenyl)picolinamide]: at human mGluR4, the Emax turned out to be 215% and the EC50 amounted to 574 nM.
As to `O=C(Nc1ccc(N2C(=O)CC(c3ccccc3)C2=O)c(Cl)c1)c1ccccn1` (centres unmarked) [Example 3, N-(3-chloro-4-(2,5-dioxo-3-phenylpyrrolidin-1-yl)phenyl)picolinamide], the Emax on human mGluR4 worked out at 219%. Besides, the EC50 at rat mGluR4 amounted to 690 nM. For the same compound, the rGluMax on rat mGluR4 (rat mGluR4/GIRK) amounted to 128.7.
For `O=C(Nc1ccc(N2C(=O)[C@H](c3ccccc3)[C@H](c3ccccc3)C2=O)c(Cl)c1)c1ccccn1` [Example 11, N-(3-chloro-4-((3R,4S)-2,5-dioxo-3,4-diphenylpyrrolidin-1-yl)phenyl)picolinamide], at human mGluR4, the Emax came to 64% and the EC50 stood at 1140 nM.
In the case of `O=C(Nc1ccc(N2C(=O)[C@H]3CCCC[C@H]3C2=O)c(Cl)c1)c1ccccn1` [Example 9, N-(3-chloro-4-((3aR,7aS)-1,3-dioxo-1H-isoindol-2(3H,3aH,4H,5H,6H,7H,7aH)-yl)phenyl)picolinamide], at human mGluR4, the Emax was 116%.
